Where two headings read alike, the source gives them in different places. No end group written: not given here.
Molecular target: T1, CUL2^ZYG11B (residues 490–728) (Homo sapiens, UniProt Q9C0D3)
T1 construct: PCR was used to amplify CUL2^ZYG11B (residues 490–728); 6×His-SUMO (TEV-cleavable) (N, cleaved yes); made in house; host or cells: E. coli
Assay: ITC binding of ORF10 NTE synthetic peptides to CUL2^ZYG11B

[1] = figure panels, […], repeated 3 times, read-out: Kd

T1 sequence (Q9C0D3 490-728): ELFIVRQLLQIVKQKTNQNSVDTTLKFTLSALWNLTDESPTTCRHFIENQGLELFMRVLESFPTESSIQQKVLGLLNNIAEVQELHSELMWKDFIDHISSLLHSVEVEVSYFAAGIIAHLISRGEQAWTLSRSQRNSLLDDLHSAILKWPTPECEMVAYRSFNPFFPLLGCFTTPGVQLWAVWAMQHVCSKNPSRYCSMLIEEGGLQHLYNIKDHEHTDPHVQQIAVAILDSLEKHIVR

Row | Substance | Kd [1] [µM] | also measured
1 | AYINV [SARS-2 ORF10 N5-G1A] |  | Kd: 12.4 µM
2 | GYIAV [SARS-2 ORF10 N5-N4A] | 0.59 | 
3 | PYINV [SARS-2 ORF10 N5-G1P, altered peptide derived from SARS-CoV-2 ORF10 N5, G1P] |  | binding to CUL2^ZYG11B (in words) (ITC): abolished
4 | GYANV [SARS-2 ORF10 N5-I3A] | 5.61 | 
5 | GYFNV [SARS-2 ORF10 N5-I3F] | 0.87 | 
6 | GFINV [SARS-2 ORF10 N5-Y2F] | 4.73 | 

From paper PMC11413682 (Acta Pharmaceutica Sinica. B, 2024)
